Measurements from US20070010671A1, “Novel quinazoline derivatives and methods of treatment related to the use thereof” (priority 2003, published 2007).
pIC50: −log10 of the molar value.

What follows are compounds tested against MCH receptor (Homo sapiens, UniProt Q99705) (assay: High throughput functional screening FLIPR/FDSS6000: inhibition of MCH-evoked intracellular Ca2+ changes). Conditions: class by percent of control at 10^-7 M or IC50.
Format: cell-based
Summary of the method: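 Cells expressing a non-endogenous, constitutively active MCH receptor were loaded with 4 μM Fluo4-AM (with probenecid) for 1 hr at 37° C. Test compound was preincubated 3 min at 37° C before 50 nM MCH was added. The [Ca2+]i transient was read at Ex 488/Em 530 nm for 290 s.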
`CN(C)c1nc(N[C@H]2CC[C@@H](CNC(=S)Nc3ccc(F)c(F)c3F)CC2)nc2ccccc12` [compound 633, N-[(cis-4-{[4-(dimethylamino)quinazolin-2-yl]amino}cyclohexyl)methyl]-N′-(2,3,4-trifluorophenyl)thiourea] was tested, and the class was 2 (Class 2: The value of percent of control at 10^−7 M was from 40% to 60% or the value of IC50 was from 50 nM to 200 nM.). With `CCOC(=O)c1ccc(NC(=O)NC[C@H]2CC[C@@H](Nc3nc(N(C)C)c4ccccc4n3)CC2)cc1` [compound 431] the class was 3 (Class 3: The value of percent of control at 10^−7 M was more than 60% or the value of IC50 was more than 200 nM.). With `Cc1cc(Br)cc(C)c1NC(=S)NC[C@H]1CC[C@@H](Nc2nc(N(C)C)c3ccccc3n2)CC1` [compound 691, N-(4-bromo-2,6-dimethylphenyl)-N′-[(cis-4-{[4-(dimethylamino)quinazolin-2-yl]amino}cyclohexyl)methyl]thiourea] the class was 1 (Class 1: The value of percent of control at 10^−7 M was less than 40% or the value of IC50 was less than 50 nM.). With `CSc1ccccc1NC(=S)N[C@H]1CC[C@@H](Nc2nc(N(C)C)c3ccccc3n2)CC1` [compound 206] the class was 2 (Class 2: The value of percent of control at 10^−7 M was from 40% to 60% or the value of IC50 was from 50 nM to 200 nM.). `Cc1cc(Cl)ccc1NC(=O)NC[C@H]1CC[C@@H](Nc2nc(N(C)C)c3ccccc3n2)CC1` [compound 546] was tested, and the class was 2 (Class 2: The value of percent of control at 10^−7 M was from 40% to 60% or the value of IC50 was from 50 nM to 200 nM.). `Cc1cccc(C(C)C)c1NC(=S)N[C@H]1CC[C@@H](Nc2nc(N(C)C)c3ccccc3n2)CC1` [compound 366, N-(cis-4-{[4-(dimethylamino)quinazolin-2-yl]amino}cyclohexyl)-N′-(2-isopropyl-6-methylphenyl)thiourea] was tested, and the class was 1 (Class 1: The value of percent of control at 10^−7 M was less than 40% or the value of IC50 was less than 50 nM.). `CCOC(=O)c1ccc(NC(=S)N[C@H]2CC[C@@H](Nc3nc(N(C)C)c4ccccc4n3)CC2)cc1` [compound 272] was tested, and the class was 3 (Class 3: The value of percent of control at 10^−7 M was more than 60% or the value of IC50 was more than 200 nM.). With `COc1ccc(NC(=S)NC[C@H]2CC[C@@H](Nc3nc(N(C)C)c4ccccc4n3)CC2)c([N+](=O)[O-])c1` [compound 700] the class was 3 (Class 3: The value of percent of control at 10^−7 M was more than 60% or the value of IC50 was more than 200 nM.). For `CN(C)c1nc(N[C@H]2CC[C@@H](CNC(=O)Nc3ccc(F)c(Cl)c3)CC2)nc2ccccc12` [compound 529], the class was 1 (Class 1: The value of percent of control at 10^−7 M was less than 40% or the value of IC50 was less than 50 nM.). `CN(C)c1nc(N[C@H]2CC[C@@H](CNC(=S)NC(C)(C)C)CC2)nc2ccccc12` [compound 623] was tested, and the class was 3 (Class 3: The value of percent of control at 10^−7 M was more than 60% or the value of IC50 was more than 200 nM.). In the case of `Cc1ccc(NC(=S)N[C@H]2CC[C@@H](Nc3nc(N(C)C)c4ccccc4n3)CC2)c(C)c1` [compound 249, N-(cis-4-{[4-(dimethylamino)quinazolin-2-yl]amino}cyclohexyl)-N′-(2,4-dimethylphenyl)thiourea], the class was 1 (Class 1: The value of percent of control at 10^−7 M was less than 40% or the value of IC50 was less than 50 nM.). `CC(NC(=O)NCC1CCC(Nc2nc(N(C)C)c3ccccc3n2)CC1)c1ccccc1` (stereo not shown) [compound 466, 1-[4-(4-Dimethylamino-quinazolin-2-ylamino)-cyclohexylmethyl]-3-(1-phenyl-ethyl)-urea] was tested, and the class was 2 (Class 2: The value of percent of control at 10^−7 M was from 40% to 60% or the value of IC50 was from 50 nM to 200 nM.).

Same assay, conditions: class by percent of control at 10^-7 M or by IC50; read-out: class
`CN(C)c1nc(N[C@H]2CC[C@@H](NC(=S)Nc3ccccc3Cl)CC2)nc2ccccc12` [compound 202] was tested, and the pIC50 was < 6.70. `CN(C)c1nc(N[C@H]2CC[C@@H](NC(=O)NC3CCCC3)CC2)nc2ccccc12` [compound 843, N-cyclophenyl-N′-(cis-4-{[4-(dimethylamino)quinazolin-2-yl]amino}cyclohexyl)urea] showed a pIC50 of 6.70 to 7.30. `CN(C)c1nc(N[C@H]2CC[C@@H](NC(=O)Nc3ccc(Cl)cc3)CC2)nc2ccccc12` [compound 15] was tested, and the pIC50 was < 6.70. `CN(C)c1nc(N[C@H]2CC[C@@H](NC(=O)Nc3cc(Cl)c(Cl)cc3Cl)CC2)nc2ccccc12` [compound 74] was tested, and the pIC50 was < 6.70. In the case of `CN(C)c1nc(N[C@H]2CC[C@@H](NC(=O)Nc3cc(Cl)cc(Cl)c3)CC2)nc2ccccc12` [compound 23], the pIC50 was < 6.70. `COc1ccc(NC(=O)N[C@H]2CC[C@@H](Nc3nc(N(C)C)c4ccccc4n3)CC2)cc1` [compound 43, N-(cis-4-{[4-(dimethylamino)quinazolin-2-yl]amino}cyclohexyl)-N′-(4-methoxyphenyl)urea] was tested, and the pIC50 was 6.70 to 7.30. Compound `Cc1ccc(NC(=O)N[C@H]2CC[C@@H](Nc3nc(N(C)C)c4ccccc4n3)CC2)cc1` [compound 57, N-(cis-4-{[4-(dimethylamino)quinazolin-2-yl]amino}cyclohexyl)-N′-(4-methylphenyl)urea] has a pIC50 of 6.70 to 7.30. For `CN(C)c1nc(N[C@H]2CC[C@@H](NC(=O)Nc3c(Cl)cccc3Cl)CC2)nc2ccccc12` [compound 84], the pIC50 was < 6.70. `CCCCCCCOc1ccc(NC(=O)N[C@H]2CC[C@@H](Nc3nc(N(C)C)c4ccccc4n3)CC2)cc1` [compound 825] was tested, and the pIC50 was < 6.70. `CC(C)[C@@H]1CC[C@@H](C)C[C@H]1OC(=O)N[C@H]1CC[C@@H](Nc2nc(N(C)C)c3ccccc3n2)CC1` [compound 860] was tested, and the pIC50 was < 6.70. `CN(C)c1nc(N[C@H]2CC[C@@H](NC(=S)NC3CCCC3)CC2)nc2ccccc12` [compound 162, N-cyclopentyl-N′-(cis-4-{[4-(dimethylamino)quinazolin-2-yl]amino}cyclohexyl)thiourea] showed a pIC50 of 6.70 to 7.30. `CCOC(=O)c1c(NC(=S)NC[C@H]2CC[C@@H](Nc3nc(N(C)C)c4ccccc4n3)CC2)sc2c1CCCC2` [compound 801, ethyl 2-[({[(cis-4-{[4-(dimethylamino)quinazolin-2-yl]amino}cyclohexyl)methyl]amino}carbonothioyl)amino]-4.5.6.7-tetrahydro-1-benzothiophene-3-carboxylate] was tested, and the pIC50 was < 6.70. In the case of `CN(C)c1nc(N[C@H]2CC[C@@H](CNC(=S)Nc3ccc4nsnc4c3)CC2)nc2ccccc12` [compound 816], the pIC50 was < 6.70. For `CN(C)c1nc(N[C@H]2CC[C@@H](NC(=S)Nc3cccc4ccccc34)CC2)nc2ccccc12` [compound 187, N-(cis-4-{[4-(dimethylamino)quinazolin-2-yl]amino}cyclohexyl)-N′-1-naphthylthiourea], the pIC50 was > 7.30.

Same assay, conditions: class by percent of control at 10^−7 M or by IC50; read-out: class
In the case of `C[C@@H](NC(=O)[C@H]1CC[C@@H](Nc2nc(N(C)C)c3ccccc3n2)CC1)c1ccccc1` [Example 1189, cis-4-{[4-(dimethylamino)quinazolin-2-yl]amino}-N-[(1R)-1-phenylethyl]cyclohexanecarboxamide], the pIC50 was > 7.30. For `CN(C)c1nc(N[C@H]2CC[C@@H](NC(=O)c3ccc(Oc4ccccc4Br)nc3)CC2)nc2ccccc12` [Example 1052, 6-(2-bromophenoxy)-N-(cis-4-{[4-(dimethylamino)quinazolin-2-yl]amino}cyclohexyl)nicotinamide], the pIC50 was < 6.70. `CN(C)c1nc(N[C@H]2CC[C@@H](NC(=O)c3ccc(Oc4ccc(F)cc4)nc3)CC2)nc2ccccc12` [Example 1059, N-(cis-4-{[4-(dimethylamino)quinazolin-2-yl]amino}cyclohexyl)-6-(4-fluorophenoxy)nicotinamide] was tested, and the pIC50 was < 6.70. `CN(C)c1nc(N[C@H]2CC[C@@H](NC(=O)C(O)c3ccc(Br)cc3)CC2)nc2ccccc12` (relative stereo) [Example 1107, 2-(4-bromophenyl)-N-(cis-4-{[4-(dimethylamino)quinazolin-2-yl]amino}cyclohexyl)-2-hydroxyacetamide] was tested, and the pIC50 was 6.70 to 7.30. Work on `CN(C)c1nc(N[C@H]2CC[C@@H](C(=O)NCc3ccc(Cl)nc3)CC2)nc2cc(F)c(F)cc12` [Example 996, cis-N-[(6-chloropyridin-3-yl)methyl]-4-{[4-(dimethylamino)-6,7-difluoroquinazolin-2-yl]amino}cyclohexanecarboxamide] yielded a pIC50 of 6.70 to 7.30. In the case of `CN(C)c1nc(N[C@H]2CC[C@@H](NC(=O)c3ccc(F)c(F)c3)CC2)nc2cc(F)c(F)cc12` [Example 1209, N-(cis-4-{[4-(dimethylamino)-6,7-difluoroquinazolin-2-yl]amino}cyclohexyl)-3,4-difluorobenzamide], the pIC50 was > 7.30. With `CN(C)c1nc(N[C@H]2CC[C@@H](NC(=O)c3ccc(OCc4ccccc4)cc3)CC2)nc2ccccc12` [Example 1084, 4-(benzyloxy)-N-(cis-4-{[4-(dimethylamino)quinazolin-2-yl]amino}cyclohexyl)benzamide] the pIC50 was < 6.70. In the case of `CN(C)c1nc(N[C@H]2CC[C@@H](NC(=O)c3cccnc3Oc3ccc(OC(F)(F)F)cc3)CC2)nc2ccccc12` [Example 1037, N-(cis-4-{[4-(dimethylamino)quinazolin-2-yl]amino}cyclohexyl)-2-[4-(trifluoromethoxy)phenoxy]nicotinamide], the pIC50 was > 7.30. `Cc1ccc(F)cc1CNC(=O)[C@H]1CC[C@@H](Nc2nc(N(C)C)c3ccccc3n2)CC1` [Example 1146, cis-4-{[4-(dimethylamino)quinazolin-2-yl]amino}-N-(5-fluoro-2-methylbenzyl)cyclohexanecarboxamide] was tested, and the pIC50 was > 7.30. In the case of `Cc1cccc(CNC(=O)[C@H]2CC[C@@H](Nc3nc(N(C)C)c4ccccc4n3)CC2)c1` [Example 1165, cis-4-{[4-(dimethylamino)quinazolin-2-yl]amino}-N-(3-methylbenzyl)cyclohexanecarboxamide], the pIC50 was > 7.30. With `CN(C)c1nc(N[C@H]2CC[C@@H](NC(=O)c3cccnc3Oc3ccc(F)c(Cl)c3)CC2)nc2ccccc12` [Example 1043, 2-(3-chloro-4-fluorophenoxy)-N-(cis-4-{[4-(dimethylamino)quinazolin-2-yl]amino}cyclohexyl)nicotinamide] the pIC50 was > 7.30.
